Assay results from PMC5533163 (Medicines, 2015).
Read-outs that look alike come from different tables or passages of the source.

Experiments:
CYP3A4 [1] = molecular target: T1, CYP3A4 (Homo sapiens, UniProt P08684); type: in vitro ADME; design: The reaction was initiated by the addition of HLM (0.6 mg/mL protein); tissue Corning Life Sciences (Cambridge, MA, USA); host or cells: pooled human liver microsomes, 25 donors, mixed gender; conditions: Lineweaver-Burk plot, testosterone metabolism
Method: (§2) The incubation mixture (250 µL) consisted of NADPH regeneration system (NADP^+, glucose-6-phosphate, and G6PDH) in 0.1M potassium phosphate buffer (pH 7.4). […] The reaction was initiated by the addition of HLM (0.6 mg/mL protein). After further incubation of 30 min (for CYP3A4) or 20 min (for CYP2D6) at 37 °C, reaction was terminated by addition of ice-cold acetonitrile containing 5 μL corticosterone (internal standard for CYP3A4, 20 µM) or 5 μL niflumic acid (internal standard for CYP2D6, 1 µM). The mixture was centrifuged at 10,000 rpm for 5 min and the supernatant (200 μL) was transferred into vials for HPLC (CYP3A4) or UHPLC (CYP2D6) analysis. IC50 values were obtained from concentration-response curves generated by plotting log concentration versus % of control by using GraphPad Prism 6 (La Jolla, CA, USA).
(§3) The type of inhibition (competitive or non-competitive) was predicted by Lineweaver-Burk Plot (velocity^−1 vs. substrate^−1). Apparent inhibition constant (Ki) was calculated from the x-intercept of the Dixon plot (slope of the primary plot vs. inhibitor concentration), which was fitted by liner regression using GraphPad Prism 6 (La Jolla, CA, USA).

CYP3A4 [2] = molecular target: T1, CYP3A4; test: Reversible (co-incubation) and time dependent (pre-incubation) inhibition of recombinant CYP3A4, fluorescent substrate BFC; type: in vitro ADME; design: purchased BD Gentest (Woburn, MA, USA); conditions: based on IC50 shift ratio criterion > 1.5
Method: (§4) The reaction was terminated and fluorescence was measured as described above. IC50 values (pre-incubation assay) were obtained as above. The IC50 shift fold was calculated as the ratio of IC50 (co-incubation)/IC50 (pre-incubation).

CYP2C9 = molecular target: T2, CYP2C9 (Homo sapiens, UniProt P11712); test: Reversible inhibition of recombinant CYP2C9; type: in vitro ADME; conditions: recombinant enzyme, 100–0.4 µM, data not shown
T2 construct: purchased BD Gentest (Woburn, MA, USA)
Method: (§1) The assay conditions for determining reversible and time dependent inhibition of CYPs were similar as reported earlier. Test samples or positive controls were serially diluted in a solution (100 µL) of cofactors mix, control protein (0.05 mg of protein/mL) and Glucose-6-phosphate dehydrogenase (G6PDH) to achieve six concentrations (100–0.4 µM). To account for any inherent fluorescence, the plates were incubated at 37 °C for 10 min and fluorescence readings were taken. Enzyme substrate mixture (100 µL) was added to initiate the reaction and the plates were further incubated for 15 (CYP1A2), 30 (CYP3A4, 2C9 and 2C19) or 45 min (CYP2D6). The reaction was stopped by the addition of 75 µL of acetonitrile/0.5M Tris base (80:20). Fluorescence was measured on Spectramax M5 plate reader (Molecular Devices, Sunnyvale, CA, USA) at specified excitation and emission wavelengths for each substrate. IC50 values (co-incubation assay) were obtained from concentration-response curves generated by plotting log concentration versus % control.

CYP2D6 [3] = molecular target: T3, CYP2D6 (Homo sapiens, UniProt P10635); test: Reversible (co-incubation) and time dependent (pre-incubation) inhibition of recombinant CYP2D6, fluorescent substrate AMMC; type: in vitro ADME; design: purchased BD Gentest (Woburn, MA, USA); conditions: for IC50: recombinant enzyme, mean ± SD of three experiments
CYP2C19 = molecular target: T4, CYP2C19 (Homo sapiens, UniProt P33261); test: Reversible inhibition of recombinant CYP2C19; type: in vitro ADME; conditions: recombinant enzyme, 100–0.4 µM, data not shown
T4 construct: purchased BD Gentest (Woburn, MA, USA)
Method: as §1

P-gp = molecular target: T5, P-gp (Homo sapiens, UniProt P08183); test: P-gp inhibition, calcein-AM uptake in hMDR1-MDCK-II and MDCK-II cells; type: cell-based; conditions: calcein-AM 1 µM, mean ± SD of three experiments
T5 construct: host or cells: hMDR1-MDCK-II (canine kidney cells transfected with human MDR1)
Method: MDCK-II and hMDR1-MDCK-II cells were seeded in 96-well plates at 70,000 cells/well in 200 µL of culture medium. The medium was changed at 24 h after seeding and the assay was performed 48 h later. Test samples and positive control at various concentrations (100–0.4 µM) were added to the cells in 50 µL of transport buffer and incubated at 37 °C for 10 min. […] The % increase in calcein-AM uptake was calculated as described earlier [18].

CYP1A2 = molecular target: T6, CYP1A2 (Homo sapiens, UniProt P05177); test: Inhibition of recombinant CYP1A2; type: in vitro ADME; conditions: recombinant enzyme
T6 construct: purchased BD Gentest (Woburn, MA, USA)
Method: as §4

[4] = humans, cited from earlier work
CYP2D6 [5] = molecular target: T3, CYP2D6; test: Reversible inhibition and enzyme kinetics of CYP2D6 in pooled HLM (dextromethorphan to dextrorphan); type: in vitro ADME; design: The reaction was initiated by the addition of HLM (0.6 mg/mL protein); tissue Corning Life Sciences (Cambridge, MA, USA); host or cells: pooled human liver microsomes, 25 donors, mixed gender; conditions: for Type of inhibition of CYP2D6 in HLM: Lineweaver-Burk plot
Method: as §2, §3
The quantification of dextromethorphan, dextrorphan and niflumic acid (internal standard) was done by using Agilent LC-quadrupole time-of-flight (QToF) (model 6230)-mass spectrometry (Agilent Technologies, Palo Alto, CA, USA). The UHPLC system consisted of a binary pump, autosampler, degasser, and a column compartment. The mass detector was equipped with an electron spray ionization interface, which was connected to Agilent MassHunter Work Station (B.05.00). Dextromethorphan and dextrorphan were analyzed using an Agilent Zorbax SB-C8 RRHD column (100 mm × 2.1 mm I.D., 1.8 µm). A column temperature of 35 °C and sample temperature of 15 °C were maintained during analysis. The mobile phase consisted of water (A) and Acetonitrile (B), both containing 0.1% formic acid, which were applied in the following linear gradient elution: 0 min, 80%A: 20%B in next 10 min to 30%A: 70%B and in next 2 min to 100% B, at a flow rate of 0.2 mL/min. Separation was followed by a 2 min washing procedure with 100% B and re-equilibration period of 3.0 min. The total run time for analysis was 10 min. The injection volume was 2 µL. […] The LOD and LOQ of dextromethorph and dextrorphan, were 10 ng/mL and 5 ng/mL, respectively.

T3 sequence (P10635 whole entry): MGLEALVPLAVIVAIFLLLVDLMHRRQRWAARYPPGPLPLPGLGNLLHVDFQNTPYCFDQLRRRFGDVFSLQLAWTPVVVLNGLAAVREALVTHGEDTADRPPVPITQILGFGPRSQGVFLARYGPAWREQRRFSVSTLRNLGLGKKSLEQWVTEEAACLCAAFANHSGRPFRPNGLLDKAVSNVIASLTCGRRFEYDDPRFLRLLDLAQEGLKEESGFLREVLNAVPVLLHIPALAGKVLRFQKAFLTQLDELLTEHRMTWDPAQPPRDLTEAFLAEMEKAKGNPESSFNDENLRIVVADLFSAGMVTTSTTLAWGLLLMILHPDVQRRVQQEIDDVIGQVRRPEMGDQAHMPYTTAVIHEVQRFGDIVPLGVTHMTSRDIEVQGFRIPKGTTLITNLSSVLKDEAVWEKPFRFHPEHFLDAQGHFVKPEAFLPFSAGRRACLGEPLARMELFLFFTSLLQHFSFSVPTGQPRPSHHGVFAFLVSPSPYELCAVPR
T1 sequence (P08684 whole entry): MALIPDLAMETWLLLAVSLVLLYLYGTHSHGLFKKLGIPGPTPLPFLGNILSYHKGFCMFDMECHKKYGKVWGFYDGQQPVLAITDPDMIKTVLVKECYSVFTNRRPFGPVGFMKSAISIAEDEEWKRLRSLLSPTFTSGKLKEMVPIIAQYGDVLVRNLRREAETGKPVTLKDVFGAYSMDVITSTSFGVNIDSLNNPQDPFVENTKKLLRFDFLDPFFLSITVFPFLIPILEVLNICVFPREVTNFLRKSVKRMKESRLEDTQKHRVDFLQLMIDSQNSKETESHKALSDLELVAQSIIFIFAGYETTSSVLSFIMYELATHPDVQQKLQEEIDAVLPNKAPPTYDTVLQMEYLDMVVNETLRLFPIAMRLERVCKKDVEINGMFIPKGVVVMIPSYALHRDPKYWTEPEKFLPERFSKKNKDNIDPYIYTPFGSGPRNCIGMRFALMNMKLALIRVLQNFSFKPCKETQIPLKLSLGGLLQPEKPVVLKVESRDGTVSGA
T4 sequence (P33261 whole entry): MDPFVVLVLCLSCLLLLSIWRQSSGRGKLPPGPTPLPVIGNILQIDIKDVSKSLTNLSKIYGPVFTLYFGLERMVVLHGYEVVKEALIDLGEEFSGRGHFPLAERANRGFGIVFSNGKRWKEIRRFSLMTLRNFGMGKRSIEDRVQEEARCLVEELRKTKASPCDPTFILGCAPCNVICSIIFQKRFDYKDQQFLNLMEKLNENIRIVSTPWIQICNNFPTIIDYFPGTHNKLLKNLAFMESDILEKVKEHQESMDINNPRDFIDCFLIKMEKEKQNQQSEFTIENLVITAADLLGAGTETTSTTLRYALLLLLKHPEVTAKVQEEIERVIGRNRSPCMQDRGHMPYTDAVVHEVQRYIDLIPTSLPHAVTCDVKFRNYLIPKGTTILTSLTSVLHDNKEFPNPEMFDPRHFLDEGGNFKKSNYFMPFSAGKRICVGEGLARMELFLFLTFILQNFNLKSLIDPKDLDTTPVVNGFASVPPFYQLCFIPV
T2 sequence (P11712 whole entry): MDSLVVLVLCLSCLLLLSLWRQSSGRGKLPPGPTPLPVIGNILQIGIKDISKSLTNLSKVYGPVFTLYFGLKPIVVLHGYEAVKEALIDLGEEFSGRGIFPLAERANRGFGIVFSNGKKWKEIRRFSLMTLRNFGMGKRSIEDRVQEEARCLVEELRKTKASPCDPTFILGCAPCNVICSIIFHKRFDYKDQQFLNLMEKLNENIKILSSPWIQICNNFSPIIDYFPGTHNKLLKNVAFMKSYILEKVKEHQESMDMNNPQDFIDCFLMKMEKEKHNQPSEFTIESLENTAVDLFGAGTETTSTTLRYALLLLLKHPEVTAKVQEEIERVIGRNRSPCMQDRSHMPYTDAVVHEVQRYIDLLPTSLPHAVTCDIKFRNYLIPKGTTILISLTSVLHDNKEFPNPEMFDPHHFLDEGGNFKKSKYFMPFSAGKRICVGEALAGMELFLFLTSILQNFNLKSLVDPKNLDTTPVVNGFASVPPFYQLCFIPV
T6 sequence (P05177 whole entry): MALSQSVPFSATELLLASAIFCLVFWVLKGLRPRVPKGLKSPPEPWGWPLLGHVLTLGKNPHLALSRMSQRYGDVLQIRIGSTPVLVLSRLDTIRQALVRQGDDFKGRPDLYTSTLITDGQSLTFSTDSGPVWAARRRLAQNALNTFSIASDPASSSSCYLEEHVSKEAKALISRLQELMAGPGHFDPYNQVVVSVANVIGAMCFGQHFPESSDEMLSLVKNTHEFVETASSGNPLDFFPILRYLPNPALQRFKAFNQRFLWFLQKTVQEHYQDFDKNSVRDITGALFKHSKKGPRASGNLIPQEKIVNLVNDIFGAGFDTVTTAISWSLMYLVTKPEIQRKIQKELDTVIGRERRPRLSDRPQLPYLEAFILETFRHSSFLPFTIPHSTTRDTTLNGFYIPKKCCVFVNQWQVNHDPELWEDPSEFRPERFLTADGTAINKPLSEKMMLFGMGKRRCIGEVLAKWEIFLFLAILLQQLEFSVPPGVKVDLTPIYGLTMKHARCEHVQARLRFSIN
T5 sequence (P08183 whole entry): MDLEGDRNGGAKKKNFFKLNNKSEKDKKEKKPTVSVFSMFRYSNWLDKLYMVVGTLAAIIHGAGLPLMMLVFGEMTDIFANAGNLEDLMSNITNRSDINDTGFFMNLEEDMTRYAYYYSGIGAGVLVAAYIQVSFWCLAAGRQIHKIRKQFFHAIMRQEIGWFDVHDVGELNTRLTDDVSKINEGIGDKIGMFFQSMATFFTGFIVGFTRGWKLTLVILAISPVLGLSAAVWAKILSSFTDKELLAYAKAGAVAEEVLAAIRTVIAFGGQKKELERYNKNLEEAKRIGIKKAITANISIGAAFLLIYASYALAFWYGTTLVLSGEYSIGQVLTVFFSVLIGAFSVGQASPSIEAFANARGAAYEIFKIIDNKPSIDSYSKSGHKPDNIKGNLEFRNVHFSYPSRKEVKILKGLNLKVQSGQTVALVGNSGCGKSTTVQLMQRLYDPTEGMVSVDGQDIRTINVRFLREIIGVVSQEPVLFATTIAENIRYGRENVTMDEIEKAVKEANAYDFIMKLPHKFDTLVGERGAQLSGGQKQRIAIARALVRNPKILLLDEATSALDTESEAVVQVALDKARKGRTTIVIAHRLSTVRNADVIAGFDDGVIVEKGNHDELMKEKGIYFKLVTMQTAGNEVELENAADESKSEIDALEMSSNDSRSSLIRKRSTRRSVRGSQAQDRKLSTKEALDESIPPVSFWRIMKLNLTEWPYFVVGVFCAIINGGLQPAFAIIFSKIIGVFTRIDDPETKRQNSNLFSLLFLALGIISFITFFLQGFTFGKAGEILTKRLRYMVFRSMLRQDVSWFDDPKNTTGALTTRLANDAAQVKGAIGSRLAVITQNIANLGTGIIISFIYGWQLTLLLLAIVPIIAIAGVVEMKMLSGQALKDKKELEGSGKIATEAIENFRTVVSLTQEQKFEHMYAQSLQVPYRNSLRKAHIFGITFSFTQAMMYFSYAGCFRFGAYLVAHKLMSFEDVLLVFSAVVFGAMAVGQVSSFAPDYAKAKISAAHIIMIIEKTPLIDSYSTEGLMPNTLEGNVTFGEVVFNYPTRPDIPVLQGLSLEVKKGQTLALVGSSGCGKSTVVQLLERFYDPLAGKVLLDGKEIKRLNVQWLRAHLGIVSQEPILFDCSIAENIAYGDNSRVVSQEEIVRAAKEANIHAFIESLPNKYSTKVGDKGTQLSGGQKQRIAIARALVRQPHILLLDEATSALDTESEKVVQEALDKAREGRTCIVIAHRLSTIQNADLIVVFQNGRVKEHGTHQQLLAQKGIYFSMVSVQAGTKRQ

For CCOC(=O)C1=C[C@]2(CC)CCCN3CCc4c(n1c1ccccc41)[C@@H]32 [Vinpocetine, ethyl apovincaminate], the “Type of inhibition of CYP3A4 in HLM” value (CYP3A4 [1]) was “competitive inhibition”, the “Type of inhibition of CYP3A4 in HLM” value (CYP3A4 [1]; listed as vinpocetine) was “competitive” and the “Time dependent inhibition (TDI) of CYP3A4” value (CYP3A4 [2]) was “no TDI”. For the same compound, the “Inhibition of CYP2C9” value (CYP2C9) was “no activity”, the “Inhibition of CYP2C9” value (CYP2C9; listed as vinpocetine) was “No inhibition” and the “Time dependent inhibition (TDI) of CYP2D6” value (CYP2D6 [3]; based on IC50 shift ratio criterion > 1.5) was “no TDI”. The IC50 (CYP2D6 [3]; 30 min pre-incubation (TDI assay), read-out: CYP2D6 (recombinant) IC50 Pre-incubation) was 37 ± 1.6 µM, the IC50 (CYP2D6 [3]; co-incubation (reversible inhibition), read-out: CYP2D6 (recombinant) IC50 Co-incubation) was 6.5 ± 1.1 µM and the “Inhibition of CYP2C19” value (CYP2C19) was “no activity”. For the same compound, the “Inhibition of CYP2C19” value (CYP2C19; listed as vinpocetine) was “No inhibition”, the EC50 (P-gp) was 8 µM and the “Inhibition of CYP1A2” value (CYP1A2) was “no activity”. The “Maximum plasma concentration (Cmax)” value ([4]; oral) was 60 ng/mL, the Oral bioavailability [4] was 6% and the “Type of inhibition of CYP2D6 in HLM” value (CYP2D6 [5]; dextromethorphan metabolism) was “non-competitive inhibition”. For the same compound, the “Type of inhibition of CYP2D6 in HLM” value (CYP2D6 [5]; dextromethorphan metabolism, listed as vinpocetine) was “competitive”, the IC50 at 20 min (CYP2D6 [5]; human, pooled human liver microsomes, pH 7.4, probe dextromethorphan (to dextrorphan), pooled HLM, dextromethorphan as probe substrate) was 19 µM and the Ki (CYP2D6 [5]; pooled HLM, dextromethorphan metabolism, Dixon plot) was 26 µM.
